Measured values as given in patent US8372982B2, “Fungicidal N-(Phenylcycloalkyl)carboxamide, N-(Benzylcycloalkyl)carboxamide and thiocarboxamide derivatives” (Bayer Cropscience AG, priority 2009, dated 2013).

System: Leptosphaeria nodosum
Experiment: In vivo comparative test on Leptosphaeria nodoruin (wheat)/preventive
Settings: dose of 500 ppm, preventive, evaluated 10 days after the inoculation
Procedure: Solvent: 49 parts by weight of N,N-dimethylacetamide Emulsifier: 1 part by weight of alkylaryl polyglycol ether To produce a suitable preparation of active compound, 1 part by weight of active compound or the compound combination is mixed with the stated amounts of solvent and emulsifier, and the concentrate is diluted with water to the desired concentration. To test for protective activity, young plants are sprayed with a preparation of active compound or active compound combination at the stated rate of application. After the spray coating has dried on, the plants are sprayed with a spore suspension of Leptosphaeria nodosum. The plants remain for 48 hours in an incubation cabinet at 20° C. and a relative atmospheric humidity of 100%. The plants are placed in a greenhouse at a temperature of approximately 15° C. and a relative atmospheric humidity of approximately 80%. The test is evaluated 10 days after the inoculation. 0% means an efficacy which corresponds to that of the control, while an efficacy of 100% means that no disease is observed. […]

Compound: Cn1cc(C(=O)N[C@@H]2C[C@@H]2c2ccc(Cl)cc2)c(C(F)F)n1 (relative stereo) [Example 1.001, cis-N-[2-(4-chlorophenyl)cyclopropyl]-3-(difluoro-methyl)-1-methyl-1H-pyrazole-4-carboxamide]
- disease control: less than 10%
